Measurements reported in the NIST ThermoML archive (doi:10.1016/j.jct.2012.12.022).

Assay: mn = molality of the nth substance listed, in mol/kg
Conditions: 101 kPa, Liquid; for speed of sound: Sing-around technique in a fixed-path interferometer; for mass density: Vibrating tube method

O=C([O-])CC(O)(CC(=O)[O-])C(=O)[O-].[Na+].[Na+].[Na+] [trisodium citrate] + O
Conditions	mass density, 288.15 K [kg/m3]	mass density, 293.15 K [kg/m3]	mass density, 298.15 K [kg/m3]	mass density, 303.15 K [kg/m3]	speed of sound, 288.15 K [m/s]	speed of sound, 293.15 K [m/s]	speed of sound, 298.15 K [m/s]	speed of sound, 303.15 K [m/s]
m1 = 0.00247	999.597	998.701	997.537	996.131	1467.4	1483	1497.2	1509.6
m1 = 0.04871	1008.4	1007.39	1006.09	1004.6	1479.1	1493.7	1507.2	1519.6
m1 = 0.09738	1017.15	1016.08	1014.65	1013.09	1488.8	1503.5	1516.8	1529
m1 = 0.201	1034.85	1033.45	1031.8	1030.15	1509.2	1523.4	1536.7	1547.8
m1 = 0.2898	1049.56	1047.86	1046.01	1044.34	1526.1	1540	1552.4	1562.6
m1 = 0.3899	1065.78	1063.45	1061.6	1059.7	1545.2	1558.9	1570.2	1579
m1 = 0.4966	1082.16	1079.75	1077.6	1075.59	1565.2	1578	1587.1	1596.3
m1 = 0.6007	1097.37	1094.95	1092.45	1090.27	1583.7	1595	1603.5	1612.2
m1 = 0.7036	1111.65	1109.41	1106.71	1104.4	1601	1611.8	1617.6	1626.5
m1 = 0.7698	1120.84	1118.51	1115.58	1113.15	1612.3	1621.3	1628.1	1635.6
m1 = 0.9013	1138.29	1135.53	1132.31	1129.69	1636.1	1643.5	1646	1652.1
